Legend:
Format in all cases: functional
[1] = tested on: HOP-62; assay: Growth inhibition of human HOP62 cells
[2] = tested on: MDA-MB-231; assay: Growth inhibition of human MDA-MB-231 cells
[3] = tested on: MDA-MB-468; assay: Growth inhibition of human MDA-MB-468 cells
[4] = tested on: SF-295; assay: Growth inhibition of human SF295 cells
[5] = tested on: Malme-3M; assay: Growth inhibition of human MALME-3M cells
[6] = tested on: COLO 205; assay: Growth inhibition of human COLO205 cells
[7] = tested on: U-251; assay: Growth inhibition of human U251 cells
[8] = tested on: HL-60(TB); assay: Growth inhibition of human HL-60(TB) cells
[9] = tested on: RPMI-8226; assay: Growth inhibition of human RPMI8226 cells
[10] = tested on: EKVX; assay: Growth inhibition of human EKVX cells
[11] = tested on: UACC-257; assay: Growth inhibition of human UACC257 cells
[12] = tested on: NCI-H226; assay: Growth inhibition of human NCI-H226 cells
[13] = tested on: HCC 2998; assay: Growth inhibition of human HCC2998 cells
[14] = tested on: UACC-62; assay: Growth inhibition of human UACC62 cells
[15] = tested on: SK-OV-3; assay: Growth inhibition of human SKOV3 cells
[16] = tested on: KM12; assay: Growth inhibition of human KM12 cells
[17] = tested on: SN12C; assay: Growth inhibition of human SN12C cells
[18] = tested on: CAKI-1; assay: Growth inhibition of human Caki1 cells
[19] = tested on: OVCAR-5; assay: Growth inhibition of human OVCAR5 cells
[20] = tested on: BT-549; assay: Growth inhibition of human BT549 cells
[21] = tested on: SNB-19; assay: Growth inhibition of human SNB19 cells
[22] = tested on: HCT-116; assay: Growth inhibition of human HCT116 cells
[23] = tested on: UO-31; assay: Growth inhibition of human UO31 cells
[24] = Growth inhibition of human Hs 578T cells
[25] = tested on: SW-620; assay: Growth inhibition of human SW620 cells
[26] = tested on: ACHN; assay: Growth inhibition of human ACHN cells
[27] = tested on: SK-MEL-28; assay: Growth inhibition of human SK-MEL-28 cells
[28] = tested on: HT-29; assay: Growth inhibition of human HT-29 cells
[29] = tested on: NCI-H460; assay: Growth inhibition of human NCI-H460 cells
[30] = tested on: SK-MEL-2; assay: Growth inhibition of human SK-MEL-2 cells
[31] = tested on: NCI-H322M; assay: Growth inhibition of human NCI-H322M cells
[32] = tested on: MCF7; assay: Growth inhibition of human MCF7 cells
[33] = tested on: PC-3; assay: Growth inhibition of human PC3 cells
[34] = tested on: SF-268; assay: Growth inhibition of human SF268 cells
[35] = tested on: M14; assay: Growth inhibition of human M14 cells
[36] = tested on: OVCAR-3; assay: Growth inhibition of human OVCAR-3 cells
[37] = tested on: TK-10; assay: Growth inhibition of human TK10 cells
[38] = tested on: NCI/ADR-RES; assay: Growth inhibition of human NCI/ADR-RES cells
[39] = tested on: 786-0; assay: Growth inhibition of human 786-0 cells
[40] = Growth inhibition of human NCI60 cells
[41] = tested on: RXF 393; assay: Growth inhibition of human […] cells
[42] = tested on: OVCAR-4; assay: Growth inhibition of human OVCAR4 cells
[43] = tested on: NCI-H23; assay: Growth inhibition of human NCI-H23 cells
[44] = tested on: A549; assay: Growth inhibition of human A549 cells
[45] = read-out: pLC50 (the source's name) (converted)

## CC(C)=CCC/C(C)=C/Cc1cc(/C=C/c2cc(O)cc(O)c2)ccc1O [SCHWEINFURTHIN I]
[1]
  GI50: 14.5 µM
  LC50: 53.7 µM
[1]; read-out: pTGI (converted)
  TGI: 27.5 µM
[2]
  GI50: 10.7 µM
  LC50: 63.1 µM
[2]; read-out: pTGI (converted)
  TGI: 26.3 µM
[3]
  GI50: 9.12 µM
[3]; [45]
  CC50: 53.7 µM
[3]; read-out: pTGI (converted)
  TGI: 22.9 µM
[4]
  GI50: 0.372 µM
  LC50: 51.3 µM
[4]; read-out: pTGI (converted)
  TGI: 15.8 µM
[5]
  GI50: 11.7 µM
  LC50: 63.1 µM
[5]; read-out: pTGI (converted)
  TGI: 26.9 µM
[6]
  GI50: 18.2 µM
  LC50: 64.6 µM
[6]; read-out: pTGI (converted)
  TGI: 34.7 µM
[7]
  GI50: 5.5 µM
  LC50: 51.3 µM
[7]; read-out: pTGI (converted)
  TGI: 20 µM
[8]
  GI50: 5.37 µM
[8]; [45]
  CC50: 77.6 µM
[8]; read-out: pTGI (converted)
  TGI: 23.4 µM
[9]
  GI50: 3.98 µM
  LC50: 91.2 µM
[9]; read-out: pTGI (converted)
  TGI: 19.1 µM
[10]
  GI50: 10.5 µM
  LC50: 50.1 µM
[10]; read-out: pTGI (converted)
  TGI: 22.9 µM
[11]
  GI50: 14.5 µM
  LC50: 60.3 µM
[11]; read-out: pTGI (converted)
  TGI: 29.5 µM
[12]
  GI50: 16.6 µM
  LC50: 74.1 µM
[12]; read-out: pTGI (converted)
  TGI: 35.5 µM
[13]
  GI50: 15.5 µM
  LC50: 58.9 µM
[13]; read-out: pTGI (converted)
  TGI: 30.2 µM
[14]
  GI50: 10.7 µM
[14]; [45]
  CC50: 51.3 µM
[14]; read-out: pTGI (converted)
  TGI: 23.4 µM
[15]
  GI50: 15.5 µM
[15]; [45]
  CC50: 55 µM
[15]; read-out: pTGI (converted)
  TGI: 29.5 µM
[16]
  GI50: 7.08 µM
  LC50: 49 µM
[16]; read-out: pTGI (converted)
  TGI: 20.4 µM
[17]
  GI50: 13.5 µM
[17]; [45]
  CC50: 61.7 µM
[17]; read-out: pTGI (converted)
  TGI: 28.8 µM
[18]
  GI50: 5.62 µM
[18]; [45]
  CC50: 43.7 µM
[18]; read-out: pTGI (converted)
  TGI: 18.6 µM
[19]
  GI50: 17.4 µM
  LC50: 72.4 µM
[19]; read-out: pTGI (converted)
  TGI: 35.5 µM
[20]
  GI50: 7.41 µM
  LC50: 45.7 µM
[20]; read-out: pTGI (converted)
  TGI: 20 µM
[21]
  GI50: 12.6 µM
  LC50: 56.2 µM
[21]; read-out: pTGI (converted)
  TGI: 26.9 µM
[22]
  GI50: 11 µM
[22]; [45]
  CC50: 50.1 µM
[22]; read-out: pTGI (converted)
  TGI: 23.4 µM
[23]
  GI50: 6.76 µM
  LC50 (concentration killing 50% of cells): 47.9 µM
[23]; read-out: pTGI (converted)
  TGI: 20.9 µM
[24]
  GI50: 4.07 µM
  LC50: > 100 µM
[24]; read-out: pTGI (converted)
  TGI: 26.3 µM
[25]
  GI50: 15.8 µM
  LC50: > 100 µM
[25]; read-out: pTGI (converted)
  TGI: 43.7 µM
[26]
  GI50: 10 µM
[26]; [45]
  CC50: 49 µM
[26]; read-out: pTGI (converted)
  TGI: 22.4 µM
[27]
  GI50: 10.7 µM
[27]; [45]
  CC50: 50.1 µM
[27]; read-out: pTGI (converted)
  TGI: 23.4 µM
[28]
  GI50: 12.6 µM
  LC50: 69.2 µM
[28]; read-out: pTGI (converted)
  TGI: 29.5 µM
[29]
  GI50: 10.2 µM
  LC50: 85.1 µM
[29]; read-out: pTGI (converted)
  TGI: 29.5 µM
[30]
  GI50: 11.5 µM
  LC50: 56.2 µM
[30]; read-out: pTGI (converted)
  TGI: 25.7 µM
[31]
  GI50: 11.5 µM
  LC50: 51.3 µM
[31]; read-out: pTGI (converted)
  TGI: 24.5 µM
[32]
  GI50: 10 µM
  LC50: 63.1 µM
[32]; read-out: pTGI (converted)
  TGI: 25.1 µM
[33]
  GI50: 6.61 µM
  LC50: 49 µM
[33]; read-out: pTGI (converted)
  TGI: 20.4 µM
[34]
  GI50: 8.71 µM
  LC50: 51.3 µM
[34]; read-out: pTGI (converted)
  TGI: 21.9 µM
[35]
  GI50: 12.9 µM
[35]; [45]
  CC50: 53.7 µM
[35]; read-out: pTGI (converted)
  TGI: 26.3 µM
[36]
  GI50: 12.3 µM
  LC50 (concentration killing 50% of cells): 50.1 µM
[36]; read-out: pTGI (converted)
  TGI: 25.1 µM
[37]
  GI50: 14.8 µM
  LC50: 56.2 µM
[37]; read-out: pTGI (converted)
  TGI: 28.8 µM
[38]
  GI50: 9.33 µM
[38]; [45]
  CC50: 58.9 µM
[38]; read-out: pTGI (converted)
  TGI: 24 µM
[39]
  GI50: 3.55 µM
[39]; [45]
  CC50: 37.2 µM
[39]; read-out: pTGI (converted)
  TGI: 12 µM
[40]
  GI50: 10 µM
[41]
  GI50: 1.78 µM
[41]; [45]
  CC50: 7.76 µM
[41]; read-out: pTGI (converted)
  TGI: 3.72 µM
[42]
  GI50: 10 µM
[42]; [45]
  CC50: 50.1 µM
[42]; read-out: pTGI (converted)
  TGI: 22.4 µM
[43]
  GI50: 11.7 µM
  LC50: 61.7 µM
[43]; read-out: pTGI (converted)
  TGI: 26.9 µM
[44]
  GI50: 10.5 µM
  LC50: 66.1 µM
[44]; read-out: pTGI (converted)
  TGI: 26.3 µM

— ChEMBL document CHEMBL1154825, “Schweinfurthins I and J from Macaranga schweinfurthii” (2010)
